According to BindingDB's records for doi:10.1021/acschembio.6b01129 (Promega Biosciences LLC, 2017):
Where a name gives a salt, the structure may show the parent alone.

target: Oplophorus-luciferin 2-monooxygenase catalytic subunit (Oplophorus gracilirostris, UniProt Q9GV45); assay: NanoLuc Inhibition Assay
Procedure: NanoLuc enzyme was diluted to 0.4 ng/mL in CO2 independent media + 10% FBS to make the detection reagent. A 3× dilution series of each inhibitor was then made in the detection reagent. A "no inhibitor" control was also made for each sample. A total of 50 μL of each inhibitor dilution was mixed with 50 μL of NanoGlo buffer containing 20 μM furimazine (final furimazine concentration is 10 μM, which is atKM), and luminescence was measured. Each sample was normalized to the "no inhibitor" control.

Oplophorus-luciferin 2-monooxygenase catalytic subunit, sequence (Q9GV45 whole entry): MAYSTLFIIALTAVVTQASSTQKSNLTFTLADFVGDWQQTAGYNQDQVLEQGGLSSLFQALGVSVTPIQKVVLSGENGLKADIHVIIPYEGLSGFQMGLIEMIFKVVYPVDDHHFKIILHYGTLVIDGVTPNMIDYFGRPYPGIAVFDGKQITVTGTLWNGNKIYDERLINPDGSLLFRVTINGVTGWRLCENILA

| Structure (SMILES) | IC50 [nM] |
| --- | --- |
| Cc1cccc(NC(=O)Cn2c(C(=O)NC3CCCCC3)cc3sccc32)c1 [N-cyclohexyl-4-(2-oxo-2-(m-tolylamino)ethyl)-4H-thieno[3,2-b]pyrrole-5-carboxamide (13)] | 45200 |
| CCN(C(=O)Cn1c(C(=O)N[C@H]2CC[C@H](C(=O)OC)CC2)cc2sccc21)c1ccccc1C [Methyl trans-4-(4-(2-(ethyl(o-tolyl)amino)-2-oxoethyl)-4H-thieno[3,2-b]pyrrole-5carboxamido)cyclohexane-1-carboxylate (19)] | 690 |
| CCN(C(=O)Cn1c(C(=O)N[C@H]2CC[C@H](C(=O)NCCCCCCNC(=O)[C@H](CC(=O)O)NC(=O)[C@H](CC(=O)O)NC(=O)[C@H](CC(=O)O)NC(C)=O)CC2)cc2sccc21)c1cccc(C)c1 [(11S,14S,17S)-17-Acetamido-11,14-bis(carboxymethyl)-1-(trans-4-(4-(2-(ethyl(m-tolyl)amino)2-oxoethyl)-4H-thieno[3,2-b]pyrrole-5-carboxamido)cyclohexyl)-1,10,13,16-tetraoxo-2,9,12,15tetraazanonadecan-19-oic acid (46)] | 66 |
| CCN(C(=O)Cn1c(C(=O)N2CCCC2)cc2sccc21)c1cccc(C)c1 [N-ethyl-2-(5-(pyrrolidine-1-carbonyl)-4H-thieno[3,2-b]pyrrol-4-yl)-N-(m-tolyl)acetamide (6)] | 1200 |
| CCN(C(=O)Cn1c(C(=O)Nc2cccc(C(=O)OC)c2)cc2sccc21)c1cccc(C)c1 [Methyl 3-(4-(2-(ethyl(m-tolyl)amino)-2-oxoethyl)-4H-thieno[3,2-b]pyrrole-5carboxamido)benzoate (11)] | 10700 |
| CCN(C(=O)Cn1c(C(=O)N[C@H]2CC[C@H](C(=O)NCCCCCCNC(=O)c3ccc4c(c3)C3(OC4)c4ccc(O)cc4Oc4cc(O)ccc43)CC2)cc2sccc21)c1cccc(C)c1 [N-(trans-4-((6-(3',6'-dihydroxy-3-oxo-3H-spiro[isobenzofuran-1,9'-xanthene]-5(6)carboxamido)hexyl)carbamoyl)cyclohexyl)-4-(2-(ethyl(m-tolyl)amino)-2-oxoethyl)-4Hthieno[3,2-b]pyrrole-5-carboxamide (47)] | 49 |
| CCN(C(=O)Cn1c(C(=O)N[C@H]2CC[C@H](C(=O)OC)CC2)cc2ccc(OC)cc21)c1cccc(C)c1 [Methyl trans-4-(1-(2-(ethyl(m-tolyl)amino)-2-oxoethyl)-6-methoxy-1H-indole-2carboxamido)cyclohexane-1-carboxylate (30)] | 3400 |
| CCN(C(=O)Cn1c(C(=O)NC2CCC(C(=O)NCCO)CC2)cc2sccc21)c1cccc(C)c1 (stereo not drawn) [4-(2-(Ethyl(m-tolyl)amino)-2-oxoethyl)-N-(trans-4-((2-hydroxyethyl)carbamoyl)cyclohexyl)-4Hthieno[3,2-b]pyrrole-5-carboxamide (35)] | 830 |
| CCN(C(=O)Cn1cccc1C(=O)N[C@H]1CC[C@H](C(=O)OC)CC1)c1cccc(C)c1 [Methyl trans-4-(1-(2-(ethyl(m-tolyl)amino)-2-oxoethyl)-1H-pyrrole-2carboxamido)cyclohexane-1-carboxylate (28)] | 7700 |
| CCOC(=O)Cc1ccc(NC(=O)c2cc3sccc3n2CC(=O)N(CC)c2cccc(C)c2)cc1 [Ethyl 2-(4-(4-(2-(ethyl(m-tolyl)amino)-2-oxoethyl)-4H-thieno[3,2-b]pyrrole-5carboxamido)phenyl)acetate (12)] | 4700 |
| COC(=O)[C@H]1CC[C@H](NC(=O)c2cc3sccc3n2CC(=O)N2CCCc3cc(C)ccc32)CC1 [Methyl trans-4-(4-(2-(6-methyl-3,4-dihydroquinolin-1(2H)-yl)-2-oxoethyl)-4Hthieno[3,2-b]pyrrole-5-carboxamido)cyclohexane-1-carboxylate (21)] | 20200 |
| CCN(C(=O)Cn1c(C(=O)NC2CCC(C(=O)NCCN(C)C)CC2)cc2sccc21)c1cccc(C)c1 (trans isomer) [N-(trans-4-((2-(dimethylamino)ethyl)carbamoyl)cyclohexyl)-4-(2-(ethyl(m-tolyl)amino)-2oxoethyl)-4H-thieno[3,2-b]pyrrole-5-carboxamide (36)] | 17800 |
| CCN(C(=O)Cn1c(C(=O)NC2CCC(C(=O)NCCCC(=O)O)CC2)cc2sccc21)c1cccc(C)c1 (trans isomer) [4-(trans-4-(4-(2-(Ethyl(m-tolyl)amino)-2-oxoethyl)-4H-thieno[3,2-b]pyrrole-5carboxamido)cyclohexane-1-carboxamido)butanoic acid (37)] | 890 |
| COCCOCCN(C(=O)Cn1c(C(=O)NC2CCCCC2)cc2sccc21)c1cccc(C)c1 [N-cyclohexyl-4-(2-((2-(2-methoxyethoxy)ethyl)(m-tolyl)amino)-2-oxoethyl)-4H-thieno[3,2b]pyrrole-5-carboxamide (14)] | 16500 |
| CCCCCCN(C(=O)Cn1c(C(=O)NC2CCCCC2)cc2sccc21)c1cccc(C)c1 [N-cyclohexyl-4-(2-(hexyl(m-tolyl)amino)-2-oxoethyl)-4H-thieno[3,2-b]pyrrole-5-carboxamide (16)] | 5600 |
| CCN(C(=O)Cn1c(C(=O)N2CCCCC2)cc2sccc21)c1cccc(C)c1 [N-ethyl-2-(5-(piperidine-1-carbonyl)-4H-thieno[3,2-b]pyrrol-4-yl)-N-(m-tolyl)acetamide (7)] | 2600 |

Continued by falling IC50, values first:

| IC50 [nM] | Structure (SMILES) |
| --- | --- |
| 590 | CCN(C(=O)Cn1c(C(=O)N[C@H]2CC[C@H](C(=O)OC)CC2)cc2occc21)c1cccc(C)c1 [Methyl trans-4-(4-(2-(ethyl(m-tolyl)amino)-2-oxoethyl)-4H-furo[3,2-b]pyrrole-5carboxamido)cyclohexane-1-carboxylate (31)] |
| 300 | CCCCNC(=O)C1CCC(NC(=O)c2cc3sccc3n2CC(=O)N(CC)c2cccc(C)c2)CC1 (stereo not drawn) [N-(trans-4-(butylcarbamoyl)cyclohexyl)-4-(2-(ethyl(m-tolyl)amino)-2-oxoethyl)-4H-thieno[3,2b]pyrrole-5-carboxamide (34)] |
| 240 | CCN(C(=O)Cn1c(C(=O)N[C@H]2CC[C@H](C(=O)OC)CC2)cc2sccc21)c1cccc(C(N)=O)c1 [Methyl trans-4-(4-(2-((3-carbamoylphenyl)(ethyl)amino)-2-oxoethyl)-4H-thieno[3,2-b]pyrrole5-carboxamido)cyclohexane-1-carboxylate (27)] |
| 230 | CCN(C(=O)Cn1c(C(=O)N[C@H]2CC[C@@H](C(=O)OC)CC2)cc2sccc21)c1cccc(C)c1 [Methyl-cis-4-(4-(2-(ethyl(m-tolyl)amino)-2-oxoethyl)-4H-thieno[3,2-b]pyrrole-5carboxamido)cyclohexane-1-carboxylate (9)] |
| 160 | CCCCCCNC(=O)C1CCC(NC(=O)c2cc3sccc3n2CC(=O)N(CC)c2cccc(C)c2)CC1 (trans isomer) [4-(2-(Ethyl(m-tolyl)amino)-2-oxoethyl)-N-(trans-4-(hexylcarbamoyl)cyclohexyl)-4H-thieno[3,2b]pyrrole-5-carboxamide (38)] |
| 150 | CCN(C(=O)Cn1c(C(=O)N[C@H]2CC[C@H](C(=O)OC)CC2)cc2sccc21)c1cccc(C)c1 [trans-Methyl-4-(4-(2-(ethyl(m-tolyl)amino)-2-oxoethyl)-4H-thieno[3,2-b]pyrrole-5carboxamido)cyclohexane-1-carboxylate (8)] |
| 130 | CCN(C(=O)Cn1c(C(=O)N[C@H]2CC[C@H](C(=O)OC)CC2)cc2sccc21)c1cccc(C(C)C)c1 (mixture of isomers) [Methyl trans-4-(4-(2-(ethyl(3-isopropylphenyl)amino)-2-oxoethyl)-4H-thieno[3,2-b]pyrrole-5carboxamido)cyclohexane-1-carboxylate (23)] |
| 94 | CCN(C(=O)Cn1c(C(=O)NC2CCC(C(=O)NCCCCCC(=O)O)CC2)cc2sccc21)c1cccc(C)c1 (stereo not drawn) [6-(trans-4-(4-(2-(Ethyl(m-tolyl)amino)-2-oxoethyl)-4H-thieno[3,2-b]pyrrole-5carboxamido)cyclohexane-1-carboxamido)hexanoic acid (41)] |
| 71 | CCN(C(=O)Cn1c(C(=O)NC2CCC(C(=O)NCCCCCCS(=O)(=O)O)CC2)cc2sccc21)c1cccc(C)c1 (trans isomer) [Sodium 6-(trans-4-(4-(2-(ethyl(m-tolyl)amino)-2-oxoethyl)-4H-thieno[3,2-b]pyrrole-5carboxamido)cyclohexane-1-carboxamido)hexane-1-sulfonate (43)] |
| 63 | CCN(C(=O)Cn1c(C(=O)NC2CCC(C(=O)NCCCCCCN)CC2)cc2sccc21)c1cccc(C)c1 (stereo not drawn) [N-(trans-4-((6-aminohexyl)carbamoyl)cyclohexyl)-4-(2-(ethyl(m-tolyl)amino)-2-oxoethyl)-4Hthieno[3,2-b]pyrrole-5-carboxamide hydrochloride (40)] |
| 36 | CCN(C(=O)Cn1c(C(=O)N[C@H]2CC[C@H](C(=O)OC)CC2)cc2ccccc21)c1cccc(C)c1 [Methyl trans-4-(1-(2-(ethyl(m-tolyl)amino)-2-oxoethyl)-1H-indole-2-carboxamido)cyclohexane1-carboxylate (29)] |
| 31 | CCN(C(=O)Cn1c(C(=O)NC2CCC(C(=O)NCCCCCCCC(=O)O)CC2)cc2sccc21)c1cccc(C)c1 (stereo not drawn) [8-(trans-4-(4-(2-(Ethyl(m-tolyl)amino)-2-oxoethyl)-4H-thieno[3,2-b]pyrrole-5carboxamido)cyclohexane-1-carboxamido)octanoic acid (42)] |
| 30 | CCN(C(=O)Cn1c(C(=O)NC2CCC(C(=O)NCCCCCCO)CC2)cc2sccc21)c1cccc(C)c1 (stereo not drawn) [4-(2-(Ethyl(m-tolyl)amino)-2-oxoethyl)-N-(trans-4-((6-hydroxyhexyl)carbamoyl)cyclohexyl)4H-thieno[3,2-b]pyrrole-5-carboxamide (39)] |
| 5.4 | CCc1cccc(N(CC)C(=O)Cn2c(C(=O)N[C@H]3CC[C@H](C(=O)OC)CC3)cc3ccccc32)c1 [Methyl trans-4-(1-(2-(ethyl(3-ethylphenyl)amino)-2-oxoethyl)-1H-indole-2carboxamido)cyclohexane-1-carboxylate (33)] |
